According to article PMC5571287 (Antimicrobial Agents and Chemotherapy, 2017):
Where two headings read alike, the source gives them in different places.

Tests used:
[1] = system: Hepatitis C virus GT1b replicon; experiment: microbe, parasite or virus in culture; format: cell-based
RSVA 1211 = experiment: microbe, parasite or virus in culture; format: cell-based; settings: human respiratory syncytial virus, RSVA 1211, clinical
RSVB 1276 [2] = settings: human respiratory syncytial virus
PIV3 (C243 strain) = experiment: organism not typed; format: cell-based, parainfluenza virus 3; settings: PIV3, LLC-MK2 7.1
RSV B 9320 = experiment: CPE assay in HEp-2 cells (resazurin); format: cell-based; settings: human respiratory syncytial virus
RSV A USU\v1225 = experiment: CPE 2, neutral red 96-well CPE assay in HEp-2; format: cell-based; settings: human respiratory syncytial virus
Procedure: (§1) For RSV A 2001/3-12, 1998/3-2, and USU⃥v1225, CPE was induced in HEp-2 cells for 7 days and the plates were then stained with neutral red dye for approximately 2 h. The intracellular incorporated dye was extracted in 50:50 Sorensen citrate buffer-ethanol and the absorbance read on a spectrophotometer. The optical density (OD) of test wells was converted to percentage of cell and virus controls. […] The virus inocula were ∼63 50% cell culture infectious doses (CCID50) per well for 2001/3-12, ∼40 CCID50/well for 1998/3-2, and ∼32 CCID50/well for USU\v1225. This assay was conducted in Utah State University (Logan, UT).

RSV A 2001/3-12 = experiment: CPE 2, neutral red 96-well CPE assay in HEp-2; format: cell-based; settings: human respiratory syncytial virus
Procedure: as §1

RSV A 1998/3-2 = experiment: CPE 2, neutral red 96-well CPE assay in HEp-2; format: cell-based; settings: human respiratory syncytial virus
Procedure: as §1

RSVB 1000 = settings: human respiratory syncytial virus
in vitro [3] = settings: African green monkey
RSV B WST = experiment: CPE assay, RSV B Washington in HEp-2 cells (resazurin); format: cell-based, respiratory syncytial virus; settings: human respiratory syncytial virus, HEp-2
[4] = system: PC786 escape mutant (Y1631H) of RSV A2; format: cell-based, respiratory syncytial virus; settings: CPE
RSV A 1997/12-35 = experiment: CPE 1, resazurin 384-well CPE assay in HEp-2; format: cell-based; settings: human respiratory syncytial virus
Procedure: (§2) For known clinical strains (RSV A 1997/12-35, 2001/2-20, 200/3-4, and Memphis 37), a 384-well-format resazurin-based CPE assay was conducted.

RSV A Memphis 37c = experiment: CPE 1, resazurin 384-well CPE assay in HEp-2; format: cell-based; settings: human respiratory syncytial virus
Procedure: as §2

RSV A 2001/2-20 = experiment: CPE 1, resazurin 384-well CPE assay in HEp-2; format: cell-based; settings: human respiratory syncytial virus
Procedure: as §2

RSV A 2000/3-4 = experiment: CPE 1, resazurin 384-well CPE assay in HEp-2; format: cell-based; settings: human respiratory syncytial virus
Procedure: as §2

[5] = target: minigenome construct comprising the L protein, M2-1, N, and P of RSV A2 (Human respiratory syncytial virus A, UniProt P28887); experiment: cell-based
Sequence of minigenome construct comprising the L protein, M2-1, N, and P of RSV A2 (P28887 whole entry): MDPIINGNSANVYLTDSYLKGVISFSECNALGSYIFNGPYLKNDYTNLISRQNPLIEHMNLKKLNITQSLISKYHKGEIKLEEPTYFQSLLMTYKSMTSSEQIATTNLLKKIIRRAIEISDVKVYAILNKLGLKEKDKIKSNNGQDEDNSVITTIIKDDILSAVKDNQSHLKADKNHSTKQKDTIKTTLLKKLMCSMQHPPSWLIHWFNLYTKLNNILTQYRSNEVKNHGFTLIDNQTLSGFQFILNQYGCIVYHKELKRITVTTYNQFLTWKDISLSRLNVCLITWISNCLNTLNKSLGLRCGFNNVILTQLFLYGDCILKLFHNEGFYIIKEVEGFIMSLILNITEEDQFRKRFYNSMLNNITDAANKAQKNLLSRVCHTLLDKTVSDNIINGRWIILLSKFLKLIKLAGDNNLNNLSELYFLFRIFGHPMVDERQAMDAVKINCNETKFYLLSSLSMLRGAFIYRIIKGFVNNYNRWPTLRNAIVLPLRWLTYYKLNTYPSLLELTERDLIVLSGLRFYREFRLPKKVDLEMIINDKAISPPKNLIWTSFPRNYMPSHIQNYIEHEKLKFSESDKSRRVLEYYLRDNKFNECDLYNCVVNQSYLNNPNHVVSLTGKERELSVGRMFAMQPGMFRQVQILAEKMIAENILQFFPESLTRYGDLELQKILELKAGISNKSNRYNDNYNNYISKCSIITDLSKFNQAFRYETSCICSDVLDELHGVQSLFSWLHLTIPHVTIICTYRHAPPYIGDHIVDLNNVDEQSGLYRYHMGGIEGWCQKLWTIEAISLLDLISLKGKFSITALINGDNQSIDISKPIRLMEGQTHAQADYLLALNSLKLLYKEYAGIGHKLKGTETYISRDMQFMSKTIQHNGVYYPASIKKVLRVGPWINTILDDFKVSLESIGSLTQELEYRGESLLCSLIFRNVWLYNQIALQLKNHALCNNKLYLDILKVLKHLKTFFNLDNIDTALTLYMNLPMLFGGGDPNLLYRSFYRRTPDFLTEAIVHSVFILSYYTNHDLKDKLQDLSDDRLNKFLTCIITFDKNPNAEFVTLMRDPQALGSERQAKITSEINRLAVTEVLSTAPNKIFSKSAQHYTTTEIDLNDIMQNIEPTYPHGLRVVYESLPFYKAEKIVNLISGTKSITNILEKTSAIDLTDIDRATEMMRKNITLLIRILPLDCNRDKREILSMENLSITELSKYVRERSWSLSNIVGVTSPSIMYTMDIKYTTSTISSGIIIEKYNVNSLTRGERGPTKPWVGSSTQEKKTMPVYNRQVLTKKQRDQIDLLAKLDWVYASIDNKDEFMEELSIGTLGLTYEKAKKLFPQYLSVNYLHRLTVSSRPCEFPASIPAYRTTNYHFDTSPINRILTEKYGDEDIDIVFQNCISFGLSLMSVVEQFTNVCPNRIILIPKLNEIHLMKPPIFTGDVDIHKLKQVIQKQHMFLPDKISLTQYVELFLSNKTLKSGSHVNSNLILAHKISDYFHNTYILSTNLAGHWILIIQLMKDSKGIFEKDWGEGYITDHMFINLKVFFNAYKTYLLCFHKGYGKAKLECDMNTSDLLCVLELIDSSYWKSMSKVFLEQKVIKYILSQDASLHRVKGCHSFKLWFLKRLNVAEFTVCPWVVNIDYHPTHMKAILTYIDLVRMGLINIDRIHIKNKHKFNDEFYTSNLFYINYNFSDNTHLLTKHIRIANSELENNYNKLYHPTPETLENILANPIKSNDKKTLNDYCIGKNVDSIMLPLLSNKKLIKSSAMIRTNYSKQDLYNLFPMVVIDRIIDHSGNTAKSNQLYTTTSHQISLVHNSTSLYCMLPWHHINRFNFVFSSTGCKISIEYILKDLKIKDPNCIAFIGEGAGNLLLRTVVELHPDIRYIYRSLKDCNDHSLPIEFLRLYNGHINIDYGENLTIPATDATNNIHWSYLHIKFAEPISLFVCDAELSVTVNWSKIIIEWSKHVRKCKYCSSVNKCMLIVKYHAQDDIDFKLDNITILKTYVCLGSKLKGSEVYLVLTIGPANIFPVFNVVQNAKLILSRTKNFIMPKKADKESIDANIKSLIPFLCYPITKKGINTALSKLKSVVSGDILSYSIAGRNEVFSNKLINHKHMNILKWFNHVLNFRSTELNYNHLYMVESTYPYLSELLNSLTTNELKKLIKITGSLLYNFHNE
Sequence of minigenome construct comprising the L protein, M2-1, N, and P of RSV A2 (P03421 whole entry, further chain): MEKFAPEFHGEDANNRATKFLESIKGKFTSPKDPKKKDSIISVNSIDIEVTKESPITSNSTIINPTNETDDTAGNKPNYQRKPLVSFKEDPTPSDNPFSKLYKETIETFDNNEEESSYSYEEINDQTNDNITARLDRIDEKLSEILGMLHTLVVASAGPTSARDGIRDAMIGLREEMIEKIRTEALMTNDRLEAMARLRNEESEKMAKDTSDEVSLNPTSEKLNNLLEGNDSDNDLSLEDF

RSVB 1276 [6] = experiment: microbe, parasite or virus in culture; format: cell-based; settings: human respiratory syncytial virus, RSVB 1276, clinical, 3 parameter curve fit
RSV A2 = experiment: Time-of-addition assay and MOI dependency, CPE (methylene blue) in HEp-2; format: cell-based; settings: human respiratory syncytial virus
[7] = system: Wild type RSVA2 (vehicle control virus); experiment: CPE assay, vehicle control (wild type) RSV A2 virus; settings: human respiratory syncytial virus
human polymerase γ = human polymerase γ (Homo sapiens, UniProt P54098); experiment: Human polymerase inhibition in vitro (data not shown); format: biochemical; settings: up to 1 μM
Sequence of human polymerase γ (P54098 whole entry): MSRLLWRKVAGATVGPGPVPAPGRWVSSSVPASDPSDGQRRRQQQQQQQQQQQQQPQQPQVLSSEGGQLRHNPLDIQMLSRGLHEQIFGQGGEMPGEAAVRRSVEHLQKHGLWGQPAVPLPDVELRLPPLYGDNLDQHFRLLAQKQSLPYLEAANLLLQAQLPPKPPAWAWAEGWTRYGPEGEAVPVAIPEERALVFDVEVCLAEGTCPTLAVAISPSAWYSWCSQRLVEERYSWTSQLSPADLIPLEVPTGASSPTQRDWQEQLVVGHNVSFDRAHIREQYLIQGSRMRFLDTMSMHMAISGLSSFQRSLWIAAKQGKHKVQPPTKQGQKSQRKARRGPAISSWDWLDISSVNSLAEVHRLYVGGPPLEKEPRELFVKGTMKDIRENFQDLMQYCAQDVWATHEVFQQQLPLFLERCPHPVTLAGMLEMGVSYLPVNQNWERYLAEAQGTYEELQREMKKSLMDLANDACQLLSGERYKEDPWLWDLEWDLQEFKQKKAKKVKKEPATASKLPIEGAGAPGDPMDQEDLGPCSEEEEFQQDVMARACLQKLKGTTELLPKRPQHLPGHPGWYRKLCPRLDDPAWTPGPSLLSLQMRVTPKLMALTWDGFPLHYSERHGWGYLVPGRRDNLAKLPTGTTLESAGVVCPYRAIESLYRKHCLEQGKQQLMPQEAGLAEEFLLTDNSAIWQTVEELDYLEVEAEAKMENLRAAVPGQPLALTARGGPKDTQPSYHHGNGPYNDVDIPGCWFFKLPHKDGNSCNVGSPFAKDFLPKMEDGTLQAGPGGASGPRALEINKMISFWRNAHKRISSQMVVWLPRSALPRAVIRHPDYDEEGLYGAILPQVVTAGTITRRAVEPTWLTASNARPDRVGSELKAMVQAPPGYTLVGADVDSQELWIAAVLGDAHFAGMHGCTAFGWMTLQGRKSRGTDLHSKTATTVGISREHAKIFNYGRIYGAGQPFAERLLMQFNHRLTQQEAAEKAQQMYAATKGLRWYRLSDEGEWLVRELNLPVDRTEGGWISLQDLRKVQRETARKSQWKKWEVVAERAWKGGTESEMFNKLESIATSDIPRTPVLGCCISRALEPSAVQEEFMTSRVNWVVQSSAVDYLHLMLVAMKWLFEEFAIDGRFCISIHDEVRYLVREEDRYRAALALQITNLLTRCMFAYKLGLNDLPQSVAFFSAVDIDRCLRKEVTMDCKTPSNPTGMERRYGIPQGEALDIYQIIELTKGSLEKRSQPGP

in vitro [8] = settings: rhesus monkey
RSVA 492 = settings: human respiratory syncytial virus
[9] = HEp-2, read-out: RSV titre in supernatant IC50 (0.3 Log PFUe reduction) (converted)
[10] = HEp-2, read-out: RSV titre in supernatant IC90 (1 Log PFUe reduction) (converted)

## Cc1cnc(N2CC3(CCOCC3)C2)c(C(=O)Nc2ccc(C(=O)N3CCc4cc(C(=O)Nc5c(C)cccc5F)sc4-c4ccccc43)cc2)c1 [PC786, N-(2-fluoro-6-methylphenyl)-6-(4-(5-methyl-2-(7-oxa-2-azaspiro[3.5]nonan-2-yl)nicotinamido)benzoyl)-5,6-dihydro-4H-benzo[b]thieno[2,3-d]azepine-2-carboxamide]
[1]; GT1B, Huh-7, HCV replicon assay, at 14 μM, read-out: maximum inhibition achieved
  inhibition at 14 µM: 74%
[1]; Huh-7, GT1b replicon
  IC50: 320 nM
  IC90 or IC95: >14000 nM
RSVA 1211; read-out: CPE IC50
  IC50: < 0.09 nM
RSVA 1211; read-out: CPE IC90
  IC90: 1.96 nM
RSVB 1276 [2]; [9]
  IC50: 15.1 nM
RSVB 1276 [2]; [10]
  IC90: 22.5 nM
PIV3 (C243 strain)
  IC50: > 14000 nM
  IC90 or IC95: >14000 nM
RSV B 9320
  IC50: 29.1 nM
  IC90: 64.3 nM
RSV A USU\v1225
  IC50: 1.3 nM
RSV A 2001/3-12
  IC50: 3.2 nM
RSV A 1998/3-2
  IC50: 2.5 nM
RSVB 1000; [9]
  IC50: 10.3 nM
RSVB 1000; [10]
  IC90: 12.4 nM
In vitro [3]
  CC50: > 14000 nM
RSV B WST
  IC50: 27.3 ± 0.77 nM
  IC90: 57.1 ± 3.87 nM
[4]; read-out: PC786 escape mutant IC50, N=3, after 6th passage
  IC50: 17.9 nM
[4]; read-out: PC786 escape mutant IC90, N=3
  IC90: 1120 nM
RSV A 1997/12-35
  IC50: 0.35 nM
RSV A Memphis 37c
  IC50: 0.5 nM
RSV A 2001/2-20
  IC50: 0.53 nM
RSV A 2000/3-4
  IC50: 0.14 nM
[5]; HEp-2, at 140 nM, read-out: maximum inhibition achieved
  inhibition at 0.14 µM: 100%
[5]; luciferase, HEp-2, wild-type L protein
  IC90: 1.54 nM
RSVB 1276 [6]; read-out: CPE IC50
  IC50: 50.6 nM
RSVB 1276 [6]; read-out: CPE IC90
  IC90: 821 nM
RSV A2; HEp-2, 24 h, MOI 0.02, n = 3, read-out: IC50 at treatment time 24 h postinoculation
  IC50: 0.85 nM
RSV A2; HEp-2, 24 h, MOI 0.1, n = 3, read-out: IC50 at treatment time 24 h postinoculation
  IC50: 1.09 nM
RSV A2; HEp-2, 24 h, MOI 1.0, n = 3, read-out: IC50 at treatment time 24 h postinoculation
  IC50: 0.5 nM
RSV A2; HEp-2, 48 h, read-out: IC50 at treatment time 48 h postinoculation, MOI 0.02, n = 3
  IC50: 0.94 nM
RSV A2; HEp-2, 48 h, read-out: IC50 at treatment time 48 h postinoculation, MOI 0.1, n = 3
  IC50: 2.36 nM
RSV A2; HEp-2, 48 h, read-out: IC50 at treatment time 48 h postinoculation, MOI 1.0, n = 3
  IC50: 0.46 nM
RSV A2; HEp-2, 72 h, MOI 0.02, n = 3, read-out: IC50 at treatment time 72 h postinoculation
  IC50: > 93.4 nM
RSV A2; HEp-2, 72 h, MOI 0.1, n = 3, read-out: IC50 at treatment time 72 h postinoculation
  IC50: > 140 nM
RSV A2; HEp-2, 72 h, MOI 1.0, n = 3, read-out: IC50 at treatment time 72 h postinoculation
  IC50: > 140 nM
RSV A2; HEp-2, MOI 0.02, n = 3, CPE at 144 h, read-out: IC50 at treatment time 0 h postinoculation
  IC50: 0.6 nM
RSV A2; HEp-2, MOI 0.1, n = 3, CPE at 144 h, read-out: IC50 at treatment time 0 h postinoculation
  IC50: 0.99 nM
RSV A2; HEp-2, MOI 1.0, n = 3, CPE at 144 h, read-out: IC50 at treatment time 0 h postinoculation
  IC50: 0.44 nM
[7]; read-out: Wild type RSVA2 IC50
  IC50: 0.027 nM
[7]; read-out: Wild type RSVA2 IC90
  IC90: 0.065 nM
Human polymerase γ
  inhibitory effects on human polymerase γ: no measurable inhibitory effects
In vitro [8]
  CC50: > 14000 nM
RSVA 492; [9]
  IC50: 0.43 nM
RSVA 492; [10]
  IC90: 0.5 nM
